Measurements from US20110028458A1, “INHIBITION OF CELL MIGRATION BY A FARNESYLATED DIBENZODIAZEPINONE” (THALLION PHARMACEUTICALS INC., priority 2008, published 2011).

Assays:
ACAT = ACAT enzyme assay, [14C]cholesterol ester quantitation; assay type: biochemical, rat; conditions: 10 μM
Description: (§1) The procedures used were based on known assays: ACAT (from rat; Ref: Largis et al (1989), J. Lipid. Res., vol 30, 681-689), COX-2 (human; Ref: Riendeau et al (1997), Can. J. Physiol. Pharmacol., vol 75, 1088-1095 and Warner et al (1999), Pro. Natl. Acad Sci. USA, vol 96, 7563-7568), 5-LO (human; Ref: Carter et al (1991), J. Pharmacol. Exp. Ther., vol 256, no 3, 929-937, and Safayhi et al (2000), Planta Medica, vol 66, 110-113), PBR (from rat; Le Fur et al (1983), Life Sci. USA, vol 33, 449-457), CysLT1 (human; Martin et al (2001), Biochem. Pharmacol., vol 62, no 9, 1193-1200) and CBR (from rat; Damm et al (1978), Res. Comm. Chem. Pathol. Pharmacol., vol 22, 597-600 and Speth et al (1979), Life Sci., vol 24, 351-357).
Binding assays were done for each of Compounds 1-12 and 46 using ACAT, COX-2, 5-LO, PBR and CysLT1 enzymes. The procedures used are based on the respective references mentioned above and the conditions are summarized in Tables 1 (enzyme assays) and 2 (radioligand receptor assays).
(§2) Binding Assays were done at constant concentration of the compound, in 1% DMSO as vehicle, and are specified below each enzyme/receptor type in Table 3. Significance was obtained when a result was ≧50% binding or inhibition (underlined).

[1] = tested on: PC-3 (prostate adenocarcinoma); assay: In vitro cytotoxic activity, propidium iodide, PC-3; assay type: cell-based, human; conditions: 96 hrs
[2] = tested on: MDA-MB-231 (mammary gland adenocarcinoma); assay: In vitro cytotoxic activity, propidium iodide, MDA-MB-231; assay type: cell-based, human; conditions: 96 hrs
SF268 (CNS) = assay: In vitro cytotoxic activity, propidium iodide, SF-268; assay type: cell-based, human; conditions: 96 hrs
SRBC = assay: Hemolysis of SRBC; assay type: cell-based
[3] = tested on: HT-29 (colorectal carcinoma); assay: In vitro cytotoxic activity, propidium iodide, HT-29; assay type: cell-based, human
[4] = tested on: central benzodiazepine receptor (CBR; GABAA); assay: CBR (GABAA) radioligand binding assay, [3H]flunitrazepam, rat brain; conditions: 10 μM
Description: as §1, §2
As Compound 1 was isolated from structural prediction through genetic analysis and activity identified through in vitro cytotoxic assays, its molecular target(s) were unknown at the time of discovery. Based on the structural characteristics of TLN-4601, we first investigated its binding affinity to the central (GABAA; CBR;) and peripheral (PBR) benzodiazepine receptors. The effect of TLN-4601 on CBR (GABAA) and PBR was initially evaluated in a radioligand-binding assay at MDS Pharma Services (Taipei, Tawain). CBR and PBR were obtained from rat brain and heart membrane-fractions, respectively. Displacement assays were done in the presence of 1 nM [^3H]-Flunitrazepam (CBR; GABAA) or 0.3 nM of [^3H]-PK11195 (PBR). TLN-4601 was tested at 0.01, 0.1, 0.5, 1, 5 and 10 μM. Non-specific binding was estimated in the presence of 10 μM diazepam (CBR) or 100 μM dipyrimadole (PBR) and assays were performed according to previous described methods (Damm et al Res Commun Chem Pathol Pharmacol 22, pp 597-600; Le Fur et al (1983) Life Science 33, pp 449-57). […] This contrats with current specific PBR ligands, which bind the PBR with nanomolar affinity yet their effect on cell proliferation, is in the micromolar range.

Percentage of inhibition or binding activity, ACAT (ACAT)	Percentage of inhibition or binding activity, CBR [4]	SMILES	GI50 [1]	GI50 [2]	GI50 (SF268 (CNS))	Hemolysis ED50 (concentration necessary to achieve 50% hemolysis of SRBC) (SRBC)	GI50 ([3]; 96 hrs)	GI50 ([3]; Homo sapiens, HT-29, 96 h)
83%	−24%	CC(=O)Oc1cc(OC(C)=O)c2c(c1)N(CC=C(C)CCC=C(C)CCC=C(C)C)C(=O)c1cccc(OC(C)=O)c1N2 [Compound 12]	1200 nM	2790 nM	1950 nM	>64 µg/mL	9330 nM	
		COC(C)(C)CCCC(C)(CCC/C(C)=C/CN1C(=O)c2cccc(O)c2Nc2c(O)cc(O)cc21)OC (stereo not drawn) [Compound 84]				>32 µg/mL		
		[2H]C([2H])([2H])N1c2c(O)cccc2C(=O)N(C/C=C(\C)CC/C=C(\C)CCC=C(C)C)c2cc(O)cc(O)c21 [Compound 98]				4.5 µg/mL		
8%	27%	CC(C)CCCC(C)CCCC(C)CCN1C(=O)c2cccc(O)c2Nc2c(O)cc(O)cc21 (stereo not drawn) [Compound 46]				13.9 µg/mL		
		CCC(C)N1c2c(O)cccc2C(=O)N(C/C=C(\C)CC/C=C(\C)CCC=C(C)C)c2cc(O)cc(O)c21 (stereo not drawn) [Compound 77]				60.9 µg/mL		
		CCCCN1c2c(O)cccc2C(=O)N(C/C=C(\C)CC/C=C(\C)CCC=C(C)C)c2cc(O)cc(O)c21 [Compound 64]				>64 µg/mL		
		CCCN1c2c(O)cccc2C(=O)N(C/C=C(\C)CC/C=C(\C)CCC=C(C)C)c2cc(O)cc(O)c21 [Compound 63]				>64 µg/mL		
		CCN1c2c(O)cccc2C(=O)N(CC=C(C)CCCC(C)(CCCC(C)(C)OC)OC)c2cc(O)cc(O)c21 (stereo not drawn) [Compound 87]	1390 nM	2400 nM	910 nM	>64 µg/mL	1830 nM	
90%	5%	CC(=O)Oc1cccc2c1Nc1c(OC(C)=O)cc(O)cc1N(CC=C(C)CCC=C(C)CCC=C(C)C)C2=O [Compound 10]	1350 nM	1550 nM	2020 nM	>64 µg/mL	13000 nM	
71%	20%	CC(=O)Oc1cc(O)c2c(c1)N(CC=C(C)CCC=C(C)CCC=C(C)C)C(=O)c1cccc(OC(C)=O)c1N2 [Compound 11]	5350 nM	7720 nM	5790 nM	9.8 µg/mL	16000 nM	
		COC(C)(CCC=C(C)C)CCC/C(C)=C/CN1C(=O)c2cccc(O)c2Nc2c(O)cc(O)cc21 (stereo not drawn) [Compound 83]				12.4 µg/mL		
		CCN1c2c(O)cccc2C(=O)N(C/C=C(\C)CC/C=C(\C)CCCC(C)(C)OC)c2cc(O)cc(O)c21 [Compound 85]				>64 µg/mL		
		CC(C)=CCCC(C)(O)CCC/C(C)=C/CN1C(=O)c2cccc(O)c2Nc2c(O)cc(O)cc21 (stereo not drawn) [Compound 89]				>64 µg/mL		> 30000 nM
		CC(C)=CCC/C(C)=C/CC/C(C)=C/CN1C(=O)c2cccc(O)c2N(C)c2c(O)cc(O)cc21 [Compound 98]	820 nM	510 nM	160 nM		690 nM	
		CCCCCCN1c2c(O)cccc2C(=O)N(C/C=C(\C)CC/C=C(\C)CCC=C(C)C)c2cc(O)cc(O)c21 [Compound 67]				>64 µg/mL		
		CC(C)CCCC(C)CCCC(C)CCN1C(=O)c2cccc(O)c2N(C)c2c(O)cc(O)cc21 (stereo not drawn) [Compound 78]				9.89 µg/mL		
		COC(C)(CCC=C(C)C)CCC/C(C)=C/CN1C(=O)c2cccc(O)c2N(C)c2c(O)cc(O)cc21 (stereo not drawn) [Compound 80]				>64 µg/mL		
40%	1%	COc1cc(OC)c2c(c1)N(CC=C(C)CCC=C(C)CCC=C(C)C)C(=O)c1cccc(OC)c1N2 [Compound 8]						
		COC(C)(C)CCC/C(C)=C/CC/C(C)=C/CN1C(=O)c2cccc(O)c2Nc2c(O)cc(O)cc21 [Compound 82]				>64 µg/mL		
77%	10%	CC(=O)Oc1cc(OC(C)=O)c2c(c1)N(CC=C(C)CCC=C(C)CCC=C(C)C)C(=O)c1cccc(O)c1N2 [Compound 9]	1440 nM	2480 nM	1880 nM	>64 µg/mL	12600 nM	
		C/C(=C\CN1C(=O)c2cccc(O)c2Nc2c(O)cc(O)cc21)CC/C=C(\C)CCC1OC1(C)C (stereo not drawn) [Compound 18]	> 30000 nM	> 30000 nM	7450 nM	>64 µg/mL	> 30000 nM	
51%	22%	CC(C)=CCC/C(C)=C/CC/C(C)=C/CN1C(=O)c2cccc(O)c2N(C)c2c(O)cc(O)cc21 [Compound 2]				5.12 µg/mL		
	12%	COc1cccc2c1Nc1c(O)cc(O)cc1N(C/C=C(\C)CC/C=C(\C)CCC=C(C)C)C2=O [Compound 4]				>64 µg/mL		
60%	21%	COc1cc(O)cc2c1Nc1c(O)cccc1C(=O)N2C/C=C(\C)CC/C=C(\C)CCC=C(C)C [Compound 5]				>64 µg/mL		
	14%	COc1cc(OC)c2c(c1)N(C/C=C(\C)CC/C=C(\C)CCC=C(C)C)C(=O)c1cccc(O)c1N2 [Compound 6]				>64 µg/mL		> 30000 nM
95%	21%	COc1cccc2c1Nc1c(OC)cc(O)cc1N(CC=C(C)CCC=C(C)CCC=C(C)C)C2=O [Compound 7]	14600 nM	17400 nM	18500 nM	>64 µg/mL	14100 nM	
		CC(=O)NC(C)(CCC=C(C)C)CCC/C(C)=C/CN1C(=O)c2cccc(O)c2Nc2c(O)cc(O)cc21 (stereo not drawn) [Compound 92]				>64 µg/mL		> 30000 nM
		CCN1c2c(O)cccc2C(=O)N(C/C=C(\C)CC/C=C(\C)CCC=C(C)C)c2cc(O)cc(O)c21 [Compound 14]	1150 nM	2160 nM	760 nM	43.9 µg/mL	2040 nM	
63%	10%	CC(C)=CCC/C(C)=C/CC/C(C)=C/CN1C(=O)c2cccc(O)c2N(Cc2ccccc2)c2c(O)cc(O)cc21 [Compound 3]				>64 µg/mL		
		CC(C)=CCCC1(C)OC1CC/C(C)=C/CN1C(=O)c2cccc(O)c2Nc2c(O)cc(O)cc21 (stereo not drawn) [Compound 17]	18700 nM	> 30000 nM	13400 nM	35.0 µg/mL	> 30000 nM	
